Assay results reported in ChEMBL document CHEMBL5365556 (ACS Med Chem Lett, 2023).

Tested on: THP-1
Test: Cytotoxicity against human THP-1 cells assessed as reduction in cell viability measured after 24 hrs by Celltiter-Glo assay
Assay type: functional, cell-based
Details: THP-1, 24 h

SMILES: CCN(CC)C(=S)SSC(=S)N(CC)CC
- IC50: 7 µM
